Results from ChEMBL document CHEMBL1697731, “Cheminformatics analysis of assertions mined from literature that describe drug-induced liver injury in different species” (Chem Res Toxicol, 2010).

What was measured:
Hepatotoxicity [1] = test: Literature-mined compound from Fourches et al multi-species drug-induced liver injury (DILI) dataset, effect in humans; conditions: human
Hepatotoxicity [2] = test: Literature-mined compound from Fourches et al multi-species drug-induced liver injury (DILI) dataset, effect in rodents; conditions: rodentia
Hepatotoxicity [3] = test: Literature-mined compound from Fourches et al multi-species drug-induced liver injury (DILI) dataset, effect in non-rodents

SMILES | Hepatotoxicity (Hepatotoxicity [1]) | Hepatotoxicity (Hepatotoxicity [2]) | Hepatotoxicity (Hepatotoxicity [3]) | Hepatotoxicity (Hepatotoxicity [1]; Liver) | Hepatotoxicity (Hepatotoxicity [2]; Liver) | Hepatotoxicity (Hepatotoxicity [3]; Liver)
CCN(CCCc1ccccc1)CCCc1ccccc1 [ALVERINE] | drug-induced liver injury reported | no drug-induced liver injury reported | no drug-induced liver injury reported |  |  | 
C=CC(N)CCC(=O)O (configuration not stated) [VIGABATRIN] | no drug-induced liver injury reported | drug-induced liver injury reported | no drug-induced liver injury reported |  |  | 
Nc1c(CC(=O)O)cccc1C(=O)c1ccc(Br)cc1 [BROMFENAC] | drug-induced liver injury reported | no drug-induced liver injury reported | no drug-induced liver injury reported |  |  | 
NNCCc1ccccc1 [PHENELZINE] |  |  |  | drug-induced liver injury reported | drug-induced liver injury reported | no drug-induced liver injury reported
C[C@@H]1[C@H](O)[C@@H](C)/C=C/C=C/C=C/C=C/C=C/C=C/C=C/[C@H](O[C@@H]2O[C@H](C)[C@@H](O)[C@H](N)[C@@H]2O)C[C@@H]2O[C@](O)(C[C@@H](O)C[C@@H](O)[C@H](O)CC[C@@H](O)C[C@@H](O)CC(=O)O[C@H]1C)C[C@H](O)[C@H]2C(=O)O [AMPHOTERICIN B] | drug-induced liver injury reported | drug-induced liver injury reported | no drug-induced liver injury reported |  |  | 
CCC(C(=O)O)C1(O)CCCCC1 (configuration not stated) [CYCLOBUTYROL] | no drug-induced liver injury reported | drug-induced liver injury reported | no drug-induced liver injury reported |  |  | 
CCC[C@H](N[C@@H](C)C(=O)N1[C@H](C(=O)O)C[C@@H]2CCCC[C@@H]21)C(=O)OCC [PERINDOPRIL] | drug-induced liver injury reported | drug-induced liver injury reported | no drug-induced liver injury reported |  |  | 
CO[C@H]1/C=C/O[C@@]2(C)Oc3c(C)c(O)c4c(O)c(cc(O)c4c3C2=O)NC(=O)/C(C)=C\C=C\[C@H](C)[C@H](O)[C@@H](C)[C@@H](O)[C@@H](C)[C@H](OC(C)=O)[C@@H]1C [RIFAMYCIN] | drug-induced liver injury reported | drug-induced liver injury reported | no drug-induced liver injury reported |  |  | 
CC(O)C(=O)O (configuration not stated) [LACTIC ACID] | drug-induced liver injury reported | drug-induced liver injury reported | drug-induced liver injury reported |  |  | 
CC(C)C[C@H](NC(=O)[C@@H](Cc1ccc2ccccc2c1)NC(=O)[C@H](Cc1ccc(O)cc1)NC(=O)[C@H](CO)NC(=O)[C@H](Cc1c[nH]c2ccccc12)NC(=O)[C@H](Cc1c[nH]cn1)NC(=O)[C@@H]1CCC(=O)N1)C(=O)N[C@@H](CCCNC(=N)N)C(=O)N1CCC[C@H]1C(=O)NCC(N)=O [NAFARELIN] | drug-induced liver injury reported | no drug-induced liver injury reported | no drug-induced liver injury reported |  |  | 
COc1ccc(OC)c(Cc2cnc3nc(N)nc(N)c3c2C)c1 [PIRITREXIM] | drug-induced liver injury reported | no drug-induced liver injury reported | no drug-induced liver injury reported |  |  | 
CC(C)(C(=O)c1cccnc1)c1cccnc1 [METYRAPONE] |  |  |  | drug-induced liver injury reported | drug-induced liver injury reported | no drug-induced liver injury reported
OC[C@H]1O[C@@](CO)(O[C@H]2O[C@H](CO)[C@@H](O)[C@H](O)[C@H]2O)[C@@H](O)[C@@H]1O [SUCROSE] | no drug-induced liver injury reported | drug-induced liver injury reported | drug-induced liver injury reported |  |  | 
Nc1cc(N2CCCCC2)nc(N)[n+]1[O-] [MINOXIDIL] | drug-induced liver injury reported | drug-induced liver injury reported | no drug-induced liver injury reported |  |  | 
